Assay results taken from patent US4946849A, “Method for the treatment of malaria” (Flow Incorporated, priority 1989, dated 1990).
Counter-ions that a name gives are not always drawn.

What was measured:
[1] = system: P. falciparum ATCC 50005 (chloroquine resistant); assay: Growth inhibition of chloroquine-resistant P. falciparum in culture (96-well plates, microscopy and flow cytometry); assay type: cell-based; settings: chloroquine-resistant strain
Description: Numerous experiments were conducted regarding dequalinium compounds and their ability to control the growth of chloroquine-resistant and sensitive strains of P. falciparum malaria parasites. Specifically, two commonly-known strains of P. falciparum were obtained from the American Type Culture Collection (ATCC), namely, ATCC 50005 (chloroquine resistant) and ATCC 50028 (chloroquine sensitive). The methods of culture and culture materials used in the experiments described herein are known in the art and discussed in Trager W. and Jensen, J., "Human Malaria Parasites in Continuous Culture" Science, […] (1976).
Assays for growth inhibition of P. falciparium were performed using the above parasites in standard 96-well test plates. All assays were performed in duplicate. The tests involved the use of a dequalinium chloride salt solution (from the Sigma Company of St. Louis, Mo.--product no. D3768) at concentration levels of 32, 16, 8, 4, 2, 1, and 0 nanograms/ml.
The parasites were permitted to incubate in the test media for 72 hours. At 24 hour intervals, new media and test substances were added, and an aliquot of the incubation mixture was removed for microscopic examination,In addition, the parasites were examined by flow cytometry using the techniques discussed in Makler, M. T., et al., "Thiazone Orange: A New Dye for Plasmodium Species Analysis" Cytometry, 8:568-570 (1987).
The entire experiment was terminated after three days. The data in FIG. 1 clearly illustrates the effectiveness of dequalinium salts against chloroquine-resistant parasites. The "Y" axis in FIG. 1 involves the percentage of erythrocytes in the test media which were infected with viable parasites. The "X" axis involves the concentration of dequalinium chloride used (in nanograms/ml.) At 0 nanograms/ml, parasite growth was extensive, with a % parasite infection of about 17 % after 72 hours.

Rat Colon Tumor = settings: rats, subcutaneous, intraperitoneal, or implant-osmotic pump, cited from earlier work
[2] = s.c., mice; cited from earlier work

## Cc1cc(N)c2ccccc2[n+]1CCCCCCCCCC[n+]1c(C)cc(N)c2ccccc21 [dequalinium chloride, 1,1'-(1,10-Decanediyl)bis-[4-amino-2-methylquinolinium] salt]
[1]; Plasmodium falciparum, ATCC50005, read-out: concentration level at and above which parasite growth was strongly inhibited and no viable parasites remained, after 72 hours
  minimal effective concentration: ≥ 0.001 µg/mL
[1]; 1.0 nanogram/ml and above
  parasite growth: strongly inhibited
[1]; 1.0 nanogram/ml and above, after 72 hours
  viable parasites remaining: no viable parasites remained
Rat Colon Tumor; 1.0 mg/kg
  tumor growth inhibition: significant tumor growth inhibition
Rat Colon Tumor; sublethal dose 1.0 mg/kg
  survival: all survived
[2]
  LD50: 70 mg/kg
